Earlier results, collected in US20240139208A1, “COMBINED PHARMACEUTICAL COMPOSITION CONTAINING CDK4/6 INHIBITOR AND USE THEREOF” (CHIA TAI TIANQING PHARMACEUTICAL GROUP CO., LTD., priority 2021, published 2024).

C[C@]12CC[C@@H]3c4ccc(O)cc4C[C@@H](CCCCCCCCC[S+]([O-])CCCC(F)(F)C(F)(F)F)[C@H]3[C@@H]1CC[C@@H]2O (stereo partly drawn) [Fulvestrant, 7-α-[9-(4,4,5,5,5-pentafluoropentylsulfinyl)nonyl]estra-1,3,5-(10)-triene-3,17-β-diol]
solubility in water: insoluble
